In US20070004639A1, “Methods and compositions for treating Parkinson's disease” (BodyBio, Inc., priority 2005, published 2007):
Read-outs that look alike come from different tables or passages of the source.

Experiments:
Parkinson's Disease [1] = assay: Parkinson's patients case studies (oral nutrients plus IV infusions)
Parkinson's Disease [2] = conditions: 800 mild, early Parkinson's Disease patients; cited from earlier work
Parkinson's Disease [3] = conditions: in vivo; cited from earlier work
Parkinson's Disease [4] = conditions: cited from earlier work
Parkinson's Disease [5] = conditions: after five years; cited from earlier work
[6] = test system: mouse model of Bulbar ALS; conditions: oral administration; cited from earlier work
Parkinson's Disease [7] = conditions: human, in vivo; cited from earlier work
[8] = cited from earlier work
Parkinson's Disease [9] = conditions: in vivo; cited from earlier work; remark: listed apart in the source
[10] = in vivo; cited from earlier work

N[C@@H](CCC(=O)N[C@@H](CS)C(=O)NCC(=O)O)C(=O)O [Glutathione, N—(N-L-gamma-glutamyl-L-cysteinyl)glycine]
tremor (Parkinson's Disease [1]; Case Study 1, IV Glutathione push once weekly, after 6 months): slightly improved

C#CCN(C)[C@H](C)Cc1ccccc1 [Selegiline]
delay of the progression of motor symptoms (Parkinson's Disease [2]): about nine

N[C@@H](Cc1ccc(O)c(O)c1)C(=O)O [levodopa, Levodopa]
tolerance of drug by patient (Parkinson's Disease [1]; Case Study 6, before protocol): intolerant

CCCN[C@H]1CCc2nc(N)sc2C1 [pramipexole]
patients completely free from motor complications (Parkinson's Disease [3]): 72%
patients in whom dyskinesias developed (Parkinson's Disease [3]): 10%
patients who developed motor complications (Parkinson's Disease [3]): 28%

CCCN(CCC)CCc1cccc2c1CC(=O)N2 [ropinerole]
effectiveness in comparison (Parkinson's Disease [4]; early stage Parkinson's Disease, versus levodopa): as effective as levodopa
effectiveness in comparison (Parkinson's Disease [4]; versus bromocriptine (Parlodel)): more effective than bromocriptine
patients who developed dyskinesia (Parkinson's Disease [5]): 20%
severe form among those who developed dyskinesia (Parkinson's Disease [5]): 8%

CCCC(=O)[O-].[Na+] [sodium butyrate]
neurological phenotypes [6]: successfully ameliorated

Cc1ccc(C(=O)c2cc(O)c(O)c([N+](=O)[O-])c2)cc1 [tolcapone]
deaths from liver failure (Parkinson's Disease [7]): three

Phosphatidylcholine [PC]
oral absorption ([8]; taken orally with meals): up to 90 % per 24 hrs
time over which blood levels peak ([8]; taken orally): 8 to 12 h

botulinum toxin
effect on tremors (Parkinson's Disease [9]): without any substantial reduction in tremors

carbidopa/levodopa
half-life compared with dopamine agonists [10]: shorter half-life
